Values of other authors, collected in patent publication US7572596B2, “Modulation of the neuroendoctrine system as a therapy for motor neuron disease” (University of Pittsburgh of the Commonwealth System of …, priority 2004, dated 2009).

How the values were obtained:
SOD1 transgenic mice = details: Groeneveld, 2003, Desnuelle, 2001
human ALS patients = details: 2003; for efficacy in human ALS patients: Groeneveld, Desnuelle, 2001
[1] = tested on: transgenic model for multiple sclerosis; details: direct administration; Fernandez et al, 2004

| Compound | efficacy in relieving the symptoms of ALS (SOD1 transgenic mice) | efficacy in human ALS patients (human ALS patients) | life expectancy of ALS patients (human ALS patients; ALS patients, Miller) | axonal pathology [1] | remyelination [1] |
| --- | --- | --- | --- | --- | --- |
| CN(CC(=O)O)C(=N)N [Creatine] | some efficacy | minimal efficacy | – | – | – |
| Nc1nc2ccc(OC(F)(F)F)cc2s1 [Riluzole] | – | – | extends life expectancy by only a few months | – | – |
| NC(Cc1cc(I)c(Oc2cc(I)c(O)c(I)c2)c(I)c1)C(=O)O (stereo not shown) [T4] | – | – | – | neuroprotective for axonal pathology | enhances remyelination |
| Cc1c(C)c2c(c(C)c1O)CC[C@@](C)(CCC[C@H](C)CCC[C@H](C)CCCC(C)C)O2 [a-tocopherol] | some efficacy | minimal efficacy | – | – | – |
